Earlier results as cited in publication PMC11089243, “The first selective VAP-1 inhibitor in China, TT-01025-CL: safety, tolerability, pharmacokinetics, and pharmacodynamics of single- and multiple-ascending doses” (Frontiers in Pharmacology, 2024).

Tests used:
[1] = design: method as in NASH, 2022; conditions: ref NASH, 2022
[2] = system: monoamine oxidase-B in the brain; design: method as in NASH, 2022; conditions: NASH patients; inhibition of monoamine oxidase-B in the brain; ref NASH, 2022

brain penetration (in words) [1]: high brain penetration
finding of phase I study leading to suspension of development [2]: risk of drug interactions
SMILES: CC(C)(C)NC(=O)c1ccc(OC/C(=C/F)CN)cc1.Cl [BI 1467335]
